Measurements taken from the supplement of paper PMC11451515.

Key:
Settings in all cases: 48 h
[1] = test system: NOMO1; experiment: AUC of viability dose-response curve (% viability x log10 dose units); higher = less sensitive
Method in brief: (§1)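 Library compounds in DMSO were applied for 48 h at 37°C at 11 threefold doses (47 μM to 0.79 nM) to medium-adapted leukemia cells in 1536-well plates holding 500 or 1000 cells/well. Luminescence from CellTiter-Glo One was normalised plate by plate against DMSO and cell-free wells. Area under the curve came from trapezoidal integration of a log-logistic fit, after scaling curves that rose above full viability and discarding those that failed quality control. The fit had four parameters and used log10 doses.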

[2] = test system: P12-Ichikawa; experiment: as above
Method in brief: as §1

[3] = test system: SEM cells; experiment: as above
Method in brief: as §1

[4] = test system: NOMO1; experiment: cell viability relative to DMSO control; higher = less cytotoxic
Method in brief: (§2)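 Viability is a per-plate percentage relative to DMSO wells, with cell-free wells as background. CellTiter-Glo One luminescence was read after 48 h at 37°C on 1536-well plates (5 μl) of NOMO1 or SEM (500 cells/well) or P12-Ichikawa (1000 cells/well) leukemia cells. The cells had been adapted for at least four passages in each medium and pin-dosed with library compounds in DMSO from 47 μM to 0.79 nM in 11 threefold steps.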

[5] = test system: P12-Ichikawa; experiment: as above
Method in brief: as §2

[6] = test system: SEM cells; experiment: as above
Method in brief: as §2

[7] = RPMI 5 mM glucose + 10% dialyzed FBS
[8] = HPLM + 10% dialyzed FBS, 0.000781 µM
[9] = HPLM + 10% dialyzed FBS, 0.00234 µM
[10] = HPLM + 10% dialyzed FBS, 0.00702 µM
[11] = HPLM + 10% dialyzed FBS, 0.0211 µM
[12] = HPLM + 10% dialyzed FBS, 0.0632 µM
[13] = HPLM + 10% dialyzed FBS, 0.19 µM
[14] = HPLM + 10% dialyzed FBS, 0.569 µM
[15] = HPLM + 10% dialyzed FBS, 1.71 µM
[16] = HPLM + 10% dialyzed FBS, 5.12 µM
[17] = HPLM + 10% dialyzed FBS, 15.4 µM
[18] = HPLM + 10% dialyzed FBS, 46.1 µM
[19] = RPMI 5 mM glucose + 10% FBS, 0.000781 µM
[20] = RPMI 5 mM glucose + 10% FBS, 0.00234 µM
[21] = RPMI 5 mM glucose + 10% FBS, 0.00702 µM
[22] = RPMI 5 mM glucose + 10% FBS, 0.0211 µM
[23] = RPMI 5 mM glucose + 10% FBS, 0.0632 µM
[24] = RPMI 5 mM glucose + 10% FBS, 0.19 µM
[25] = RPMI 5 mM glucose + 10% FBS, 0.569 µM
[26] = RPMI 5 mM glucose + 10% FBS, 1.71 µM
[27] = RPMI 5 mM glucose + 10% FBS, 5.12 µM
[28] = RPMI 5 mM glucose + 10% FBS, 15.4 µM
[29] = RPMI 5 mM glucose + 10% FBS, 46.1 µM
[30] = RPMI 5 mM glucose + 10% dialyzed FBS, 0.000781 µM
[31] = RPMI 5 mM glucose + 10% dialyzed FBS, 0.00234 µM
[32] = RPMI 5 mM glucose + 10% dialyzed FBS, 0.00702 µM
[33] = RPMI 5 mM glucose + 10% dialyzed FBS, 0.0211 µM
[34] = RPMI 5 mM glucose + 10% dialyzed FBS, 0.0632 µM
[35] = RPMI 5 mM glucose + 10% dialyzed FBS, 0.19 µM
[36] = RPMI 5 mM glucose + 10% dialyzed FBS, 0.569 µM
[37] = RPMI 5 mM glucose + 10% dialyzed FBS, 1.71 µM
[38] = RPMI 5 mM glucose + 10% dialyzed FBS, 5.12 µM
[39] = RPMI 5 mM glucose + 10% dialyzed FBS, 15.4 µM
[40] = RPMI 5 mM glucose + 10% dialyzed FBS, 46.1 µM

Compound: COc1cc2ncnc(Nc3cc(Br)c(O)c(Br)c3)c2cc1OC
- AUC of viability dose-response curve ([1]; HPLM + 10% dialyzed FBS): 477
- AUC of viability dose-response curve ([1]; RPMI 5 mM glucose + 10% FBS): 470
- AUC of viability dose-response curve [1, 7]: 467
- AUC of viability dose-response curve ([2]; HPLM + 10% dialyzed FBS): 473
- AUC of viability dose-response curve ([2]; RPMI 5 mM glucose + 10% FBS): 469
- AUC of viability dose-response curve [2, 7]: 472
- AUC of viability dose-response curve ([3]; HPLM + 10% dialyzed FBS): 458
- AUC of viability dose-response curve ([3]; RPMI 5 mM glucose + 10% FBS): 462
- AUC of viability dose-response curve [3, 7]: 461
- cell viability [4, 8]: 95.8%
- cell viability [4, 9]: 91%
- cell viability [4, 10]: 114%
- cell viability [4, 11]: 112%
- cell viability [4, 12]: 107%
- cell viability [4, 13]: 102%
- cell viability [4, 14]: 120%
- cell viability [4, 15]: 119%
- cell viability [4, 16]: 97.2%
- cell viability [4, 17]: 111%
- cell viability [4, 18]: 85.6%
- cell viability [4, 19]: 99.5%
- cell viability [4, 20]: 115%
- cell viability [4, 21]: 99.8%
- cell viability [4, 22]: 103%
- cell viability [4, 23]: 118%
- cell viability [4, 24]: 113%
- cell viability [4, 25]: 109%
- cell viability [4, 26]: 109%
- cell viability [4, 27]: 107%
- cell viability [4, 28]: 110%
- cell viability [4, 29]: 106%
- cell viability [4, 30]: 92.4%
- cell viability [4, 31]: 99.7%
- cell viability [4, 32]: 99.3%
- cell viability [4, 33]: 107%
- cell viability [4, 34]: 105%
- cell viability [4, 35]: 96.8%
- cell viability [4, 36]: 108%
- cell viability [4, 37]: 112%
- cell viability [4, 38]: 103%
- cell viability [4, 39]: 104%
- cell viability [4, 40]: 98.2%
- cell viability [5, 8]: 98.7%
- cell viability [5, 9]: 103%
- cell viability [5, 10]: 106%
- cell viability [5, 11]: 101%
- cell viability [5, 12]: 112%
- cell viability [5, 13]: 110%
- cell viability [5, 14]: 109%
- cell viability [5, 15]: 107%
- cell viability [5, 16]: 106%
- cell viability [5, 17]: 108%
- cell viability [5, 18]: 96.5%
- cell viability [5, 19]: 92.3%
- cell viability [5, 20]: 104%
- cell viability [5, 21]: 107%
- cell viability [5, 22]: 114%
- cell viability [5, 23]: 109%
- cell viability [5, 24]: 113%
- cell viability [5, 25]: 117%
- cell viability [5, 26]: 118%
- cell viability [5, 27]: 99.7%
- cell viability [5, 28]: 106%
- cell viability [5, 29]: 79.4%
- cell viability [5, 30]: 95.8%
- cell viability [5, 31]: 104%
- cell viability [5, 32]: 108%
- cell viability [5, 33]: 109%
- cell viability [5, 34]: 111%
- cell viability [5, 35]: 114%
- cell viability [5, 36]: 114%
- cell viability [5, 37]: 118%
- cell viability [5, 38]: 105%
- cell viability [5, 39]: 109%
- cell viability [5, 40]: 94.9%
- cell viability [6, 8]: 80%
- cell viability [6, 9]: 90.5%
- cell viability [6, 10]: 97.8%
- cell viability [6, 11]: 98.4%
- cell viability [6, 12]: 109%
- cell viability [6, 13]: 101%
- cell viability [6, 14]: 113%
- cell viability [6, 15]: 109%
- cell viability [6, 16]: 104%
- cell viability [6, 17]: 106%
- cell viability [6, 18]: 78%
- cell viability [6, 19]: 112%
- cell viability [6, 20]: 107%
- cell viability [6, 21]: 118%
- cell viability [6, 22]: 121%
- cell viability [6, 23]: 125%
- cell viability [6, 24]: 101%
- cell viability [6, 25]: 131%
- cell viability [6, 26]: 124%
- cell viability [6, 27]: 108%
- cell viability [6, 28]: 102%
- cell viability [6, 29]: 85.6%
- cell viability [6, 30]: 82.8%
- cell viability [6, 31]: 99.2%
- cell viability [6, 32]: 110%
- cell viability [6, 33]: 97.8%
- cell viability [6, 34]: 113%
- cell viability [6, 35]: 99.7%
- cell viability [6, 36]: 103%
- cell viability [6, 37]: 108%
- cell viability [6, 38]: 98.5%
- cell viability [6, 39]: 89.1%
- cell viability [6, 40]: 61.6%
